The experiment addresses MAPK14 (human) (UniProt Q16539). Briefly: Inhibition of MAPK14 Kinase Activity.

MAPK14 (human), sequence (Q16539 whole entry, looked up): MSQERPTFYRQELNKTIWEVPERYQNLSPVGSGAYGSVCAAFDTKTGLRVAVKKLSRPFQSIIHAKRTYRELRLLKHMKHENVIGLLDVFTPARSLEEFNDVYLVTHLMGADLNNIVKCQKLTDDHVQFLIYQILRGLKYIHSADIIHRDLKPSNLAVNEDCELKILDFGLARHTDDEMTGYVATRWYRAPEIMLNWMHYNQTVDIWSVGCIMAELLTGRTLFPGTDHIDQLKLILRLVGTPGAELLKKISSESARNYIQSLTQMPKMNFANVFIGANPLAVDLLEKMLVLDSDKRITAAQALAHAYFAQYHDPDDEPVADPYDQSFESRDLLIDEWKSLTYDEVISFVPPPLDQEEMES

Consider `COc1ccc(-c2ccccc2)cc1NCc1onc(-c2ccc(F)cc2)c1-c1nc(C(=O)NC(C)C)cs1`, for which the 50% inhibitory concentration (IC50) (in general, the concentration that gives 50% inhibition) is ≤ 1000 nM.
On to `COc1ccccc1C=CC(=O)N1CCN(Cc2nc(-c3ccc(F)cc3)c(-c3nc(C(=O)NC(C)C)cs3)o2)CC1`, for which the IC50 was ≤ 1000 nM.
On to `CC(C)NC(=O)n1ccc(-c2c(-c3ccc(F)cc3)noc2CN2CCOCC2)n1`, for which the IC50 is ≤ 1000 nM.
For `CC(C)NC(=O)c1csc(-c2oc(CNC(=O)c3ccc(Oc4cccc(O)c4)cc3)nc2-c2ccc(F)cc2)n1`, the IC50 is ≤ 1000 nM.
As to `Cc1nc(-c2ccc(F)cc2)c(-c2nc(C(=O)NCc3ccc(N(C)C)cc3)cs2)s1`, the IC50 is ≤ 1000 nM.
On to `Cc1nc(-c2ccc(F)cc2)c(-c2nc(C(=O)NCC3CCCO3)cs2)s1` (stereo not drawn), for which the half-inhibitory concentration (IC50) is ≤ 1000 nM.
In the case of `CC(=O)c1cccc(NC(=O)c2csc(-c3sc(C)nc3-c3ccc(F)cc3)n2)c1`, the IC50 is ≤ 1000 nM.
Turning to `COc1ccc(C(=O)N2CCN(Cc3nc(-c4ccc(F)cc4)c(-c4nc(C(=O)NC(C)C)cs4)o3)CC2)c(O)c1`, the IC50 is ≤ 1000 nM.
The value for `Cc1nc(-c2ccc(F)cc2)c(-c2nc(C(=O)NCCCN3CCCC3=O)cs2)s1` was ≤ 1000 nM.
The value for `CC(C)NC(=O)c1csc(-c2oc(CN3CCN(C(=O)c4ccc(Oc5ccccc5)cc4)CC3)nc2-c2ccc(F)cc2)n1` was ≤ 1000 nM; that for `CC(C)NC(=O)c1coc(-c2c(-c3ccc(F)cc3)noc2C2CCNCC2)n1` was ≤ 1000 nM; that for `O=C(NC1CCCCC1)c1csc(-c2c(-c3ccc(F)cc3)ncn2C2CCNCC2)n1` was ≤ 1000 nM.
With `CCOC(=O)CC(=O)N1CCN(Cc2nc(-c3ccc(F)cc3)c(-c3nc(C(=O)NC(C)C)cs3)o2)CC1`, the IC50 was ≤ 1000 nM.
With `CC(C)NC(=O)c1csc(-c2oc(CNC(=O)C(Cc3ccccc3)NC(=O)OC(C)(C)C)nc2-c2ccc(F)cc2)n1` (stereo not drawn), the IC50 is ≤ 1000 nM.
`CC(C)NC(=O)c1csc(-c2oc(CNC(=O)c3ccc(F)cc3Cl)nc2-c2ccc(F)cc2)n1`: the IC50 was ≤ 1000 nM.
Turning to `CC(=O)Nc1ccc(NC(=O)c2csc(-c3sc(C)nc3-c3ccc(F)cc3)n2)cc1`, the IC50 was ≤ 1000 nM.
The value for `CC(C)NC(=O)c1csc(-c2oc(CN3CCN(C(=O)c4c(F)c(F)c(F)c(F)c4F)CC3)nc2-c2ccc(F)cc2)n1` was ≤ 1000 nM; that for `CCOC(=O)CC(=O)NCc1nc(-c2ccc(F)cc2)c(-c2nc(C(=O)NC(C)C)cs2)o1` was ≤ 1000 nM.
As for `Cc1nc(-c2ccc(F)cc2)c(-c2nc(C(=O)NCC(C)c3ccccc3)cs2)s1` (stereo not drawn), the figure is ≤ 1000 nM.
For `Cc1nc(-c2ccc(F)cc2)c(-c2nc(C(=O)NCCc3ccc(O)cc3)cs2)s1`, the IC50 is ≤ 1000 nM.
In the case of `COc1cc2c(cc1OC)CN(C(=O)c1csc(-c3sc(C)nc3-c3ccc(F)cc3)n1)CC2`, the IC50 was ≤ 1000 nM.
The value for `COc1ccc(NC(=O)c2csc(-c3sc(C)nc3-c3ccc(F)cc3)n2)cc1OC` was ≤ 1000 nM.
Take `CC(C)NC(=O)c1csc(-c2oc(CNC(=O)c3ccc(OCc4ccccc4)cc3)nc2-c2ccc(F)cc2)n1`: the IC50 is ≤ 1000 nM.
Consider `Cc1onc(-c2ccc(F)c(Cl)c2)c1-c1ccn(C(=O)NC(C)C)n1`, for which the IC50 is ≤ 1000 nM.
For `COc1cccc(CCNC(=O)c2csc(-c3sc(C)nc3-c3ccc(F)cc3)n2)c1`, the IC50 was ≤ 1000 nM.
The value for `Cc1onc(-c2ccc(F)cc2)c1-c1ccn(C(=O)NC(C)C)n1` was ≤ 1000 nM.
As for `CC(C)NC(=O)c1csc(-c2c(-c3ccc(F)cc3)n[nH]c2C2CCN(C(=O)c3ccc(C(C)(C)C)cc3)CC2)n1`, the figure is ≤ 1000 nM; as for `CC(CO)NC(=O)c1csc(-c2c(-c3ccc(F)cc3)n[nH]c2C2CCNCC2)n1` (stereo not drawn), ≤ 1000 nM; as for `Cc1nc(-c2ccc(F)cc2)c(-c2nc(C(=O)Nc3cccc(Cl)c3C)cs2)s1`, ≤ 1000 nM.
For the compound `CC(C)NC(=O)c1csc(-c2c(-c3ccc(F)cc3)noc2CNC(=O)C(O)CCl)n1` (stereo not drawn), the IC50 was ≤ 1000 nM.
For `CC(C)NC(=O)c1csc(-c2oc(CNC(=O)Cc3cccc4ccccc34)nc2-c2ccc(F)cc2)n1`, the IC50 is ≤ 1000 nM.
Take `CC(=O)Nc1cccc(C(=O)N2CCC(c3[nH]nc(-c4ccc(F)cc4)c3-c3nc(C(=O)NC(C)C)cs3)CC2)c1`: the IC50 is ≤ 1000 nM.
With `CCC(=O)C(=O)NCc1nc(-c2ccc(F)cc2)c(-c2nc(C(=O)NC(C)C)cs2)o1`, the IC50 was ≤ 1000 nM.
As for `Cc1ccc([N+](=O)[O-])c(C(=O)NCc2nc(-c3ccc(F)cc3)c(-c3nc(C(=O)NC(C)C)cs3)o2)c1`, the figure is ≤ 1000 nM.
Turning to `Cc1nc(-c2ccc(F)cc2)c(-c2nc(C(=O)Nc3ccc4c(c3)OCO4)cs2)s1`, the half-maximal inhibitory concentration (IC50) is ≤ 1000 nM.
As to `CC(C)NC(=O)c1csc(-c2[nH][nH]c(=O)c2-c2ccc(F)cc2)n1`, the IC50 is ≤ 1000 nM.
In the case of `CC(C)NC(=O)c1csc(-c2oc(CN3CCN(C(=O)C=Cc4ccccc4O)CC3)nc2-c2ccc(F)cc2)n1`, the IC50 is ≤ 1000 nM.
`O=C(NCc1ccncc1)c1csc(-c2c(-c3ccc(F)cc3)n[nH]c2C2CCNCC2)n1`: the IC50 was ≤ 1000 nM.
For the compound `CC(C)NC(=O)c1csc(-c2oc(CNC(=O)c3ccc4cc(O)ccc4c3)nc2-c2ccc(F)cc2)n1`, the IC50 is ≤ 1000 nM.
The value for `CCNC(=O)c1csc(-c2c(-c3ccc(F)cc3)n[nH]c2C2CCNCC2)n1` was ≤ 1000 nM; that for `Cc1cccc([N+](=O)[O-])c1C(=O)NCc1nc(-c2ccc(F)cc2)c(-c2nc(C(=O)NC(C)C)cs2)o1` was ≤ 1000 nM; that for `CC(C)NC(=O)c1csc(-c2oc(CNC(C)CO)nc2-c2ccc(F)cc2)n1` (stereo not drawn) was ≤ 1000 nM.
In the case of `CC(C)NC(=O)c1csc(-c2oc(CN3CCN(C(=O)C(Cc4ccc(O)cc4)NC(=O)OC(C)(C)C)CC3)nc2-c2ccc(F)cc2)n1` (stereo not drawn), the IC50 was ≤ 1000 nM.
On to `CC(C)NC(=O)c1csc(-c2c(-c3ccc(F)cc3)n[nH]c2C2CCN(C(=O)c3cscn3)CC2)n1`, for which the IC50 is ≤ 1000 nM.
For `O=C(NCC1CC1)c1csc(-c2c(-c3ccc(F)cc3)n[nH]c2C2CCNCC2)n1`, the IC50 was ≤ 1000 nM.
For `CC(C)NC(=O)c1csc(-c2c(-c3ccc(F)cc3)n[nH]c2C2CCN(C(=O)C3CN(C(=O)OC(C)(C)C)CCN3)CC2)n1` (stereo not drawn), the concentration for half-maximal inhibition (IC50) was ≤ 1000 nM.
As to `COc1cc(C(=O)NCc2nc(-c3ccc(F)cc3)c(-c3nc(C(=O)NC(C)C)cs3)o2)cc(OC)c1O`, the IC50 is ≤ 1000 nM.
Turning to `Cc1onc(-c2ccc(Cl)cc2)c1-c1cc(C)n(C(=O)NC(C)C)n1`, the IC50 is ≤ 1000 nM.
As to `C#CCNC(=O)c1csc(-c2sc(C)nc2-c2ccc(F)cc2)n1`, the half-maximal inhibitory concentration (IC50) is ≤ 1000 nM.
On to `Cc1nc(-c2ccc(F)cc2)c(-c2nc(C(=O)NCc3cccs3)cs2)s1`, for which the IC50 was ≤ 1000 nM.
For the compound `Cc1nc(-c2ccc(F)cc2)c(-c2nc(C(=O)NCc3cc(F)cc(F)c3)cs2)s1`, the IC50 was ≤ 1000 nM.
For `CC(C)NC(=O)c1csc(-c2oc(CNC(=O)C(Cc3ccc(O)cc3)NC(=O)OC(C)(C)C)nc2-c2ccc(F)cc2)n1` (stereo not drawn), the IC50 is ≤ 1000 nM.
The value for `CCN(Cc1onc(-c2ccc(F)cc2)c1-c1nc(C(=O)NC(C)C)cs1)C(Cc1ccccc1)c1ccco1` (stereo not drawn) was ≤ 1000 nM; that for `CC(C)NC(=O)c1csc(-c2oc(CN3CCN(C(=O)c4cc(O)ccc4O)CC3)nc2-c2ccc(F)cc2)n1` was ≤ 1000 nM.
As for `Cc1nc(-c2ccc(F)cc2)c(-c2nc(C(=O)N3CCCC4CCCCC43)cs2)s1` (stereo not drawn), the figure is ≤ 1000 nM; as for `Cc1nc(-c2ccc(F)cc2)c(-c2nc(C(=O)NCCCO)cs2)s1`, ≤ 1000 nM.
As to `CC(C)NC(=O)c1csc(-c2c(-c3ccc(F)cc3)ncn2C2CCN(C(=O)CO)CC2)n1`, the IC50 is ≤ 1000 nM.
For `CC(C)NC(=O)c1csc(-c2c(-c3ccc(F)cc3)n[nH]c2C2CCN(C(=O)C(C)O)CC2)n1` (stereo not drawn), the IC50 is ≤ 1000 nM.
As to `Cc1nc(-c2ccc(F)cc2)c(-c2nc(C(=O)NC3CCC(C)CC3)cs2)s1` (stereo not drawn), the IC50 was ≤ 1000 nM.
As to `CC(C)NC(=O)c1csc(-c2oc(CNC(=O)C3CN(C(=O)OC(C)(C)C)CCN3)nc2-c2ccc(F)cc2)n1` (stereo not drawn), the 50% inhibitory concentration (IC50) is ≤ 1000 nM.
As to `Cc1nc(-c2ccc(F)cc2)c(-c2nc(C(=O)NCc3ccccc3OC(F)(F)F)cs2)s1`, the IC50 is ≤ 1000 nM.
`CC(C)NC(=O)c1csc(-c2oc(CN3CCN(C(=O)c4ccc5ncccc5c4)CC3)nc2-c2ccc(F)cc2)n1`: the IC50 was ≤ 1000 nM.
The value for `COc1ccc(C(=O)N2CCN(Cc3nc(-c4ccc(F)cc4)c(-c4nc(C(=O)NC(C)C)cs4)o3)CC2)cc1O` was ≤ 1000 nM; that for `COc1cc(OC)c(C(=O)N2CCN(Cc3nc(-c4ccc(F)cc4)c(-c4nc(C(=O)NC(C)C)cs4)o3)CC2)cc1OC` was ≤ 1000 nM; that for `CC(C)NC(=O)c1csc(-c2c(-c3ccc(F)cc3)n[nH]c2C2CCN(C(=O)c3cccc(O)c3)CC2)n1` was ≤ 1000 nM.
In the case of `COc1ccc(C(=O)N2CCN(Cc3nc(-c4ccc(F)cc4)c(-c4nc(C(=O)NC(C)C)cs4)o3)CC2)c(OC)c1OC`, the IC50 is ≤ 1000 nM.
With `CC(C)NC(=O)c1csc(-c2c(-c3ccc(F)cc3)n[nH]c2C2CCN(C(=O)c3cccc4ccccc34)CC2)n1`, the IC50 is ≤ 1000 nM.
Turning to `CCNC(=O)c1csc(-c2c(-c3ccc(F)cc3)n[nH]c2C2CCN(C(=O)CO)CC2)n1`, the IC50 is ≤ 1000 nM.
For `Cc1nc(-c2ccc(F)cc2)c(-c2nc(C(=O)NC3CCC3)cs2)s1`, the concentration for half-maximal inhibition (IC50) was ≤ 1000 nM.
For the compound `CCOc1ccc2ccccc2c1C(=O)N1CCN(Cc2nc(-c3ccc(F)cc3)c(-c3nc(C(=O)NC(C)C)cs3)o2)CC1`, the IC50 was ≤ 1000 nM.
Consider `CC(C)NC(=O)c1csc(-c2c(-c3ccc(F)cc3)n[nH]c2C2CCN(C(=O)c3cc(O)ccc3[N+](=O)[O-])CC2)n1`, for which the IC50 was ≤ 1000 nM.
Consider `Cc1nc(-c2ccc(F)cc2)c(-c2nc(C(=O)NCCCN3CCOCC3)cs2)s1`, for which the IC50 was ≤ 1000 nM.
In the case of `Cc1nc(-c2ccc(F)cc2)c(-c2nc(C(=O)NCCc3ccc(S(N)(=O)=O)cc3)cs2)s1`, the IC50 is ≤ 1000 nM.
Consider `CC(C)NC(=O)c1csc(-c2oc(CNC(=O)c3ccc([N+](=O)[O-])cc3Cl)nc2-c2ccc(F)cc2)n1`, for which the IC50 is ≤ 1000 nM.
For the compound `Cc1nc(-c2ccc(F)cc2)c(-c2nc(C(=O)Nc3ccc4c(c3)OCCO4)cs2)s1`, the IC50 is ≤ 1000 nM.
Consider `CC(C)NC(=O)c1csc(-c2oc(CNCc3ccccc3OC(F)(F)F)nc2-c2ccc(F)cc2)n1`, for which the IC50 is ≤ 1000 nM.
For the compound `CC(C)NC(=O)c1csc(-c2oc(CNC(=O)c3cccc(O)c3O)nc2-c2ccc(F)cc2)n1`, the IC50 is ≤ 1000 nM.
Turning to `COc1cccc(OC)c1C(=O)N1CCN(Cc2nc(-c3ccc(F)cc3)c(-c3nc(C(=O)NC(C)C)cs3)o2)CC1`, the IC50 was ≤ 1000 nM.
